In test [1] the test system is isolated rat soleus muscles. Kind of test: Recovery of nerve-stimulated contractile force in isolated rat soleus nerve-muscle preparation exposed to tubocurarine. The settings on record: FIG. 2: 50 μM compound added after 90 min incubation in tubocurarine, 3 muscles.
For another test, the system named is female Lewis rats. As to the kind of experiment: In situ isometric hindlimb force in anaesthetised rats under partial neuromuscular block by Cisatracurium. Format: in vivo. The note with it: Rattus norvegicus, iv, read-out: increase in tetanic force. The method, then:
Isometric hindlimb force was measured in 12-week old female Lewis rats in the presence and absence of compound.
Rats were placed under anesthesia with isoflurane (2-4%), intubated and subsequently connected to a micro ventilator (Microvent 1, Hallowell EMC, US). Two stimulation electrodes were inserted through the skin to stimulate the sciatic nerve. A small incision was made proximal to the ankle, to expose the Achilles tendon, which was tied by cotton string, and connected to a force transducer (Fort250, World Precision Instruments) with adjustable position (Vernier control). The Achilles tendon was then cut distal to the attached cotton string. The rat was placed on a heated pad, and to prevent movement artefacts from contraction of the ankle dorsiflexors, the foot was fixated by tape on a footplate.
Muscle contractile properties were assessed by applying an electrical current (under supramaximal voltage conditions) to the nerve and recording the force generated by the muscle. The muscle was stretched until maximal force was obtained, when assessed by 2 Hz stimulation. Isometric force was measured every 30 seconds at 12 Hz (Twitch), 10 pulses, and at every 5 minutes at 80 Hz (Tetanic) for 1 second (80 pulses). This stimulation pattern was employed throughout the experiment, expect in few cases where 80 Hz stimulation was replaced by 12 Hz (10 pulses). […] When the level of neuromuscular inhibition was stable, the test article was injected i.v. at the chosen concentration. The effect of test article was assessed on its ability to increase force generated from the stimulation pattern applied. The effect was assessed in the ability to increase force per se (tetanic, 80 Hz, stimulation), and the ratio between individual twitch peaks (12 Hz stimulation). The effect was monitored for at least 1 hour after injection of test article. In addition, the time from injection of test article to maximal effect on force (both twitch and tetanic) was noted and the time for the effect to disappear (return to baseline), if possible. When appropriate the infusion of neuromuscular blocking agent was ceased, with the stimulation pattern continued, and the return of force to control levels was monitored. Animals were sacrificed by cervical dislocation while still fully sedated.

For a further test, the target named is T1, CIC-1 ion channel (Rattus norvegicus, UniProt P35524).
T1 construct: from tissue; host or cells: intact soleus muscle of 12-14 week old Wistar rats
T1 sequence (P35524 1-994): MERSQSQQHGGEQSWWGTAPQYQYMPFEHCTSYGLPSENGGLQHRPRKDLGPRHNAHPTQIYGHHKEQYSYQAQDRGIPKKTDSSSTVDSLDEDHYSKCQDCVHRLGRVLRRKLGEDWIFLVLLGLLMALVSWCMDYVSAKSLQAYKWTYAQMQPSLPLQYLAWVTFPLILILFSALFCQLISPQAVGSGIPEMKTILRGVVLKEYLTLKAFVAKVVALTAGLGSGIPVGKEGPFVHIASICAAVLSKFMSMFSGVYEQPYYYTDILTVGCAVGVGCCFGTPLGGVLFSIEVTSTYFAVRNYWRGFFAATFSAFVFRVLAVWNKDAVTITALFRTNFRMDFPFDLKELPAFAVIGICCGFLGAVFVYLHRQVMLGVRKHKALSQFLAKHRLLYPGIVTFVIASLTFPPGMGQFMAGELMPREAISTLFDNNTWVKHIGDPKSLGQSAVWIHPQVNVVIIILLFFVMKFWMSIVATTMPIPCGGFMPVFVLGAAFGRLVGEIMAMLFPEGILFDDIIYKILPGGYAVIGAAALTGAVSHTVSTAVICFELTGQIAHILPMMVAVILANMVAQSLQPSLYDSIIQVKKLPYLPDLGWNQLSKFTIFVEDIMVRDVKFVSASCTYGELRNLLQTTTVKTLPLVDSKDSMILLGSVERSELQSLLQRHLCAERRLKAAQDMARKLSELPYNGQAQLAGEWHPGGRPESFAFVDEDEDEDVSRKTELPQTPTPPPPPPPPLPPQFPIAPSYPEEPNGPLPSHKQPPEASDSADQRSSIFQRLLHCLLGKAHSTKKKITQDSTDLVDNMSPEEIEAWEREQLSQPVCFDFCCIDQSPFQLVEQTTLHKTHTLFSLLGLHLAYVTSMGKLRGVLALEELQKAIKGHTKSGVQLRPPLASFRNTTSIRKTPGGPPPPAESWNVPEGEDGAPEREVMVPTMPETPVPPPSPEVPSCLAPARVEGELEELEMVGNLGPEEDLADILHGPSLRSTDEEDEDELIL
Kind of test: Electrophysiological measurement (Gm, three micro-electrode technique) of compound inhibition of CIC-1 in rat soleus muscle fibres. Format: cell-based. The settings on record: whole rat soleus muscle, Gm at four increasing concentrations, approx. 30° C., mean ± spread.

Test [2] concerns isolated rat soleus muscles. As to the kind of experiment: Recovery of nerve-stimulated contractile force in isolated rat soleus nerve-muscle preparation exposed to tubocurarine. The settings on record: 40 min, read-out: Point increase (%) of initial force that was restored. The protocol:
Recovery of force is quantified as the percentage of the force prior to tubocurarine that is recovered by the compound.
The current disclosure relates to compounds that inhibit CIC-1 ion channels and increase muscle excitability and thereby improve muscle function in clinical conditions where muscle activation is failing. Such conditions result in loss of contractile function of skeletal muscle, weakness and excessive fatigue. In this series of experiments the compounds were tested for their ability to restore contractile function of isolated rat muscle when the neuromuscular transmission had been compromised akin to neuromuscular disorders.
Experimentally, soleus muscles from 4-5 wk old rats were isolated with the motor nerve remaining attached. The nerve-muscle preparations were mounted in experimental setups that enabled electrical stimulation of the motor nerve. Stimulation of the motor nerve led to activation of the muscle fibres and ensuing force production that was recorded.
After mounting the nerve-muscle preparation in the experimental setup, the contractile function of the muscle was initially assessed under the control conditions (FIG. 2A). […] The experimental condition mimics the failing neuromuscular transmission in a range of neuromuscular disorders. After addition of tubocurarine the contractile force declined over the next 90 mins to 10-50% of the control force. 50 μM of the test compound was then added and the contractile force recovered despite the continued presence of tubocurarine. To quantify the ability of the compound to restore force the percentage of the initial force that was restored was determined after 40 mins of compound exposure (FIG. 2B) and the point increase is reported in Table 3.

The mark [3] stands for this setting: 50 μM test compound, after 40 mins exposure, 115 nM tubocurarine for 90 mins, rat soleus.

Where two headings read alike, the source gives them in different places.

A word on the EC50: it is the concentration needed to bring the measured effect to its halfway point. For the compound `CCC(F)(F)c1cc(Br)ccc1O[C@@H](C)C(=O)O` [Compound A-3, (2S)-2-[4-bromo-2-(1,1-difluoropropyl)phenoxy]propanoic acid], the “average force (AUC) relative to initial force” value in test [1] was “recovered”. In the test on female Lewis rats (17.5 mg/kg i.v., 80 Hz stimulation, Cisatracurium block), the change in vivo at 17.5 mg/kg turned out to be 64%. The compound also yielded an EC50 on CIC-1 ion channel of 3.5 ± 0.4 µM. Besides, the activation at 50 µM in test [2] (setting [3]) stood at 54%.
On to `CCC(F)(F)c1cc(Cl)ccc1O[C@@H](C)C(=O)O` [Compound A-5, (2S)-2-[4-chloro-2-(1,1-difluoropropyl)phenoxy]propanoic acid], for which the change in vivo at 10.5 mg/kg in the test on female Lewis rats was 47%. On CIC-1 ion channel, it took 4 ± 2.1 µM to reach a half-maximal effect (EC50). In addition, the activation at 50 µM in test [2] (Rattus norvegicus) was 53%.
For `CC(C)C(F)(F)c1cc(Br)ccc1O[C@@H](C)C(=O)O` [Compound A-7, (2S)-2-[4-bromo-2-(1,1-difluoro-2-methylpropyl)phenoxy]propanoic acid], in the test with female Lewis rats (25.1 mg/kg i.v., 80 Hz stimulation, Cisatracurium block), the change in vivo at 25.1 mg/kg stood at 64%. Also, at CIC-1 ion channel, the concentration giving a half-maximal response (EC50) is 3.5 ± 0.7 µM. In addition, the activation at 50 µM in test [2] (setting [3]) worked out at 42%.
Take `CCC(F)(F)c1cc(Cl)ccc1O[C@@H](CF)C(=O)O` [Compound A-22, (2R)-2-[4-chloro-2-(1,1-difluoropropyl)phenoxy]-3-fluoropropanoic acid]: the change in vivo at 10.4 mg/kg with female Lewis rats stood at 57%. This compound returned a half-maximal effective concentration (EC50) at CIC-1 ion channel of 3.3 ± 1.2 µM. For the same compound, in test [2] (Rattus norvegicus), the activation at 50 µM turned out to be 65%.
In the case of `C#Cc1ccc(O[C@@H](C)C(=O)O)c(C(F)(F)CC)c1` [Compound A-23, (2S)-2-[2-(1,1-difluoropropyl)-4-ethynylphenoxy]propanoic acid], the change in vivo at 18.8 mg/kg in the test with female Lewis rats (18.8 mg/kg i.v., 80 Hz stimulation, Cisatracurium block) amounted to 40%. The same compound gave an EC50 at CIC-1 ion channel of 6.1 ± 1.1 µM. In addition, the activation at 50 µM in test [2] (setting [3]) amounted to 37%.
`C[C@H](Oc1cc(F)c(Br)cc1C(C)(F)F)C(=O)O` [Compound A-29, (2S)-2-[4-bromo-2-(1,1-difluoroethyl)-5-fluorophenoxy]propanoic acid]: the change in vivo at 22.9 mg/kg in the test with female Lewis rats turned out to be 76%. Further, it took 5.5 ± 1.7 µM to reach a half-maximal effect at CIC-1 ion channel (EC50). Besides, the activation at 50 µM in test [2] (Rattus norvegicus) worked out at 46%.
Turning to `CCC(F)(F)c1cc(Br)c(F)cc1OCC(=O)O` [Compound A-31, 2-[4-bromo-2-(1,1-difluoropropyl)-5-fluorophenoxy]acetic acid], the change in vivo at 11.4 mg/kg with female Lewis rats (11.4 mg/kg i.v., 80 Hz stimulation, Cisatracurium block) worked out at 14%. Further, a half-maximal effect on CIC-1 ion channel (EC50) was put at 5.5 ± 0.2 µM. Moreover, in test [2] (setting [3]), the activation at 50 µM came out at 43%.
As to `CCC(F)(F)c1cc(Cl)c(F)cc1O[C@@H](C)C(=O)O` [Compound A-32, (2S)-2-[4-chloro-2-(1,1-difluoropropyl)-5-fluorophenoxy]propanoic acid], in the test on female Lewis rats, the change in vivo at 11.2 mg/kg was 75%. This compound yielded an EC50 on CIC-1 ion channel of 2.3 ± 0.6 µM. The activation at 50 µM in test [2] (Rattus norvegicus) was found to be 41%.

Source of the values: US12415771B2, “Compounds for the treatment of neuromuscular disorders” (NMD PHARMA A/S, priority 2019, dated 2025).
